Measured values from paper PMC3885398, “Evaluation of the Antitumor Effects of BPR1J-340, a Potent and Selective FLT3 Inhibitor, Alone or in Combination with an HDAC Inhibitor, Vorinostat, in AML Cancer” (PLoS ONE, 2014).

Assays:
Aurora B kinase = Aurora B kinase (Homo sapiens, UniProt Q96GD4); test: Aurora B kinase inhibition; format: biochemical
Procedure: BPR1J-340, a urea-substituted 3-phenyl-1H-5-pyrazolylamine-based compound, was designed through chemical modification of sulfonamide series of derivatives (BPR1J-097 series) by a structure-activity relationship (SAR) study (Fig. 1), [32]. For kinase inhibition specificity screening, BPR1J-340 was tested against 59 protein kinases covering the major oncogenic kinases of human protein kinome. […] In addition, BPR1J-340 inhibited TRKA, which is associated with the growth and metastasis of breast cancers, with an IC50 value of 8 nM. Given the high similarity of the ATP binding pockets of FLT3 and the Aurora kinases, the inhibitory activity toward Aurora A and Aurora B were measured. […] Taken together, BPRJ-340 is a selective kinase inhibitor with in vitro activity against FLT3, VEGFR2, VEGFR3 and TRKA receptor tyrosine kinases.

STAT5 phosphorylation = STAT5 phosphorylation in MV4;11 cells, Western blot; format: cell-based; conditions: Homo sapiens, 1 hour
Procedure: (§1) Cells were lysed in lysis buffer (50 mM Tris, pH 8.0, 150 mM NaCl, 1% Triton X-100, 0.5% sodium deoxycholate, 0.1% SDS, 1 mM sodium orthovanadate, 1 mM PMSF, and 1 mM DTT). Protein lysates were resolved by SDS-PAGE and transferred onto a polyvinylidene difluoride (PVDF) membrane (Millipore, Bedford, MA, USA). The membranes were immunoblotted with appropriate antibodies and detected using the SuperSignal reagent (Pierce, Rockford, IL, USA) followed by exposure to X-ray film.
To address whether BPR1J-340 was able to inhibit the FLT3 signaling pathway in FLT3-driven cells, MV4;11 cells were treated with different concentrations of BPR1J-340 for 1 hour, and the phosphorylation status of FLT3 and STAT5 (Signal Transducer and Activator of Transcription 5), a critical down-stream modulator that plays a major role in FLT3-ITD signal transduction for cell expansion and survival, was examined by Western blot analysis. […] To investigate the difference in sensitivity between FLT3-WT and the activating mutants FLT3-ITD and FLT3-D835Y to BPR1J-340, HEK293T cells engineered to express FLT3-WT or mutants FLT3 (FLT3-ITD, FLT3-D835Y) were analyzed. […]
Figure 2 BPR1J-340 inhibits FLT3-dependent signaling. […] The phosphorylation status of FLT3 and STAT5 were evaluated by Western blot analysis. […] The FLT3 phosphorylation status in the transfected cells was evaluated by Western blot analysis.

[1] = test system: STAT5 phosphorylation at Tyr694; test: STAT5 phosphorylation at Tyr694 in MOLM-13 cells, Western blot; format: cell-based, human; conditions: MOLM-13, 20 hours, Fig. 4D
Procedure: as §1
Some histone deacetylase inhibitors (HDACi) will enhance the cytotoxic activity of FLT3 inhibitor on FLT3-ITD^+ cell via degradation of FLT3-ITD and STAT5 [24], [26], [36], [37]. To determine whether SAHA, an HDACi, can synergize with BPR1J-340 to enhance cytotoxicity in FLT3-ITD expressing cells by interfering with the FLT3-ITD and STAT5 axis, the combined effects of SAHA and BPR1J-340 on cytotoxicity were examined. The cell growth rate of MOLM-13 and MV4;11 with SAHA and BPR1J-340 combinational treatment was decreased compared with the single-drug treatment (Fig. 4A). […]
Figure 4 The effect of BPR1J-340 and SAHA versus drug combination on AML FLT3-ITD+ cells. […] (A) Viable cells were counted after staining with trypan blue dye at indicated time point (B) At 48-hours after treatment, cells were stained with FITC-labeled annexin V and propidium iodide and percentages of apoptotic cells were analyzed by flow cytometry. […]

Chain of Aurora B kinase (Q96GD4 whole entry): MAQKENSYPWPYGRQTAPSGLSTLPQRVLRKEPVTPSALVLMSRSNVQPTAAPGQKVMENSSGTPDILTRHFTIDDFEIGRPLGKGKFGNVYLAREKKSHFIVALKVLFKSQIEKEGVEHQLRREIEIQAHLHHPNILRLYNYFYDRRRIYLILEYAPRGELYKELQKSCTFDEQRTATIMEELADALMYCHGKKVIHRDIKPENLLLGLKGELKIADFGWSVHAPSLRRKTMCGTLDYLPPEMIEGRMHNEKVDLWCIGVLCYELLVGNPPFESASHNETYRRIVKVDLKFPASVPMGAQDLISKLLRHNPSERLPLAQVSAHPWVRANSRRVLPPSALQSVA

CCc1cc(NC(=O)NCc2ccc(-c3cc(NC(=O)c4ccc(CN5CCN(C)CC5)cc4)[nH]n3)cc2)no1 [BPR1J-340, N1-(3-4-[([(5-ethyl-3-isoxazolyl)amino]carbonylamino)methyl]phenyl-1H-5-pyrazolyl)-4-[(4-methylpiperazino)methyl]benzamide]
IC50 (Aurora B kinase): 1340 nM
IC50 (STAT5 phosphorylation): ~1 nM
STAT5 phosphorylation at Tyr694 [1]: completely block
